{
  "source": "patent US20190282550A1",
  "about": "“METHOD OF TREATMENT” (The University of Melbourne, priority 2016, published 2019)",
  "key": {"HTR8 [1]": {"test_system": "HTR8", "assay": "xCELLigence placenta cell proliferation", "type": "cell-based", "details": "for proliferation at 48 h post plating: compared to control", "protocol": "The effect of vinorelbine on placenta cell (HTR8) proliferation was assessed using xCELLigence (C)."}, "[2]": {"test_system": "primary first trimester placenta cells", "assay": "MTS cell viability assay, primary first trimester placenta cells (FIG. 1)", "type": "cell-based, human", "protocol": "For in vitro experiments, methotrexate and vinorelbine are administered at different doses (from 10 nM to 100,000 nM). When used, gefitinib is combined with methotrexate at 8 μM. Cells/tissues are treated for 24 hours and 48 hours. Methodology for the following standard techniques are: Tissue culture (Nilsson et al. (2013) Obstet Gynecol 122(4):737-44), RNA, qPCR, immunohistochemistry (Nilsson et al. (2013) supra; Onda et al. (2015) Hypertension:10.1161/hyptertensionaha.114.04781; Kaitu'u-Lino et al. Pregnancy Hypertension: An International Journal of Women's Cardiovascular Health 2014 placenta explants (Brownfoot et al. (2015) Hypertension), FACs sorting (Nilsson et al. (2013) supra), trophoblast purification ((Nilsson et al. (2013) supra; Onda et al. (2015) supra; Kaitu'u Lino et al. (2014) supra) and western blots (Onda et al. (2015) supra).\nFirst trimester placenta tissue are obtained from women who are undergoing a termination of pregnancy. Placenta cells are purified as previously described (Nilsson et al. (2013) supra). They are treated with different doses (10-100,000 nM) of vinorelbine, methotrexate, methotrexate+gefitinib, gefitinib alone (and vehicle control). Cell viability is measured by MTS assay (see FIG. 1). To compare the relative potencies, the EC50 is calculated for the drugs (dose that induces 50% cell death).\nVB doses were 10,000 times lower than MXT."}, "HTR8 [3]": {"test_system": "HTR8", "assay": "MTS cell viability assay, HTR8 placenta cell line", "type": "cell-based", "protocol": "(§1) The ability for vinorelbine to reduce placenta cell viability was assessed in two placenta cell lines (A;HTR8, B; JEG3) using a MTS cell viability assay."}, "JEG3": {"test_system": "JEG3", "assay": "MTS cell viability assay, JEG3 placenta cell line", "type": "cell-based", "protocol": "as §1"}, "HTR8 cells [4]": {"test_system": "HTR8 cells", "assay": "FACs analysis of cell cycle progression", "type": "cell-based", "details": "1 μM and 10 μM", "protocol": "The effect of Vinorelbine on cell cycle progression in HTR8 cells was assessed using FACs analysis (FIGS. 8A through G). […] The proportion of cells in G1, S and G2 is graphically represented in n=3 replicates (D)."}, "[5]": {"test_system": "first trimester placenta explants", "assay": "First trimester placenta explants, M30 cytodeath immunohistochemistry", "type": "cell-based, human", "details": "compared to methotrexate±gefitinib", "protocol": "First trimester placenta explants are prepared and treated with the same drugs as above. After culture cells are fixed in paraformadehyde and immunohistochemistry staining performed with an M30 cytodeath antibody (detects apoptotic cell death). hCG secretion in to the cell culture media will be measured."}, "placenta cells": {"test_system": "placenta cells", "assay": "Apoptosis versus necrosis in placenta cells", "type": "cell-based", "protocol": "Apoptosis incites less of an inflammatory response that may otherwise injure local tissues. In this Example, the number of apoptotic cells after treatment with vinorelbine is assessed."}, "HTR8 cells [6]": {"test_system": "HTR8 cells"}, "[7]": {"details": "oral, 60 mg/m^2 once a week; cited from earlier work"}, "[8]": {"assay": "Mouse fertility breeding experiments", "details": "5 mg/kg intravenous to female mice 4 weeks prior to breeding", "experimental": "Vinorelbine is administered by tail vein injection to wild type swiss mice. The drug (or vehicle controls) is administered by tail vein twice weekly (i.e. approximately mirroring the frequency of dosing for the xenograft studies). The middle dose that was effective in regressing tumor size (2.5 mg/kg) is to be used. After one month the mice are paired for breeding. It is proposed to sacrifice mice at about day 19 of pregnancy.\nParameters measured include 1) Number of fetuses' and implantations sites; 2) fetal crown rump length; 3) fetal weight; 4) placenta weights."}, "placenta cells (JEG3)": {"test_system": "placenta cells (JEG3)", "assay": "Mouse xenograft model, placenta cells (JEG3) grafted subcutaneously"}, "human Fallopian tubes": {"test_system": "human Fallopian tubes", "assay": "Human Fallopian tubes treated ex vivo, western blot of apoptotic markers", "text": "Fallopian tube cells are obtained from (non pregnant) women undergoing hysterectomy and explants prepared as previously published (Shaw et al. (2011) Am J Pathol 178(1):253-60). […] Investigators stain the explants with M30 antibody by immunohistochemistry (measures late apoptosis) and obtain tissue lysates and perform western blot to measure the following proteins involved in apoptosis (Elmore (2007) supra): Bcl-2, Bax, Bid and Bim and quantify by densiometric analysis.\nHuman Fallopian tubes were obtained at hysterectomy (from women of child-bearing age)."}, "[9]": {"details": "increasing doses, intravenously, vs. vehicle"}, "[10]": {"details": "western blot densitometry, n=3 tubes"}},
  "data": [
    {"smiles": "CN(Cc1cnc2nc(N)nc(N)c2n1)c1ccc(C(=O)N[C@@H](CCC(=O)O)C(=O)O)cc1", "note": "[methotrexate]", "values": [
      {"measurement": "proliferation at 48 h post plating", "setting": "HTR8 [1]", "result": "no significant effect"}
    ]},
    {"smiles": "CCC1=C[C@@H]2CN(C1)Cc1c([nH]c3ccccc13)[C@@](C(=O)OC)(c1cc3c(cc1OC)N(C)[C@H]1[C@@](O)(C(=O)OC)[C@H](OC(C)=O)[C@]4(CC)C=CCN5CC[C@]31[C@@H]54)C2", "note": "[vinorelbine]", "values": [
      {"measurement": "inducing death of primary first trimester placenta cells", "setting": "[2]; compared to methotrexate±gefitinib", "result": "significantly more effective in inducing death"},
      {"measurement": "potency relative to methotrexate", "setting": "[2]; placenta cell death", "result": "1,000 to 10,000 times"},
      {"measurement": "cell viability", "setting": "HTR8 [3]", "result": "significant dose dependent reduction in cell viability"},
      {"measurement": "cell viability", "setting": "JEG3", "result": "significant dose dependent reduction in cell viability"},
      {"measurement": "proliferation at 48 h post plating", "setting": "HTR8 [1]", "result": "proliferation was reduced at 1, 10 and 100 μM"},
      {"measurement": "HTR8 proliferation", "setting": "HTR8 [1]; xCELLigence, over time", "result": "reduced HTR8 proliferation in a dose-dependent manner"},
      {"measurement": "cell cycle progression", "setting": "HTR8 cells [4]", "result": "inhibits cell cycle progression, with cells arrested in the G2 phase of mitosis"},
      {"measurement": "cells halted at G2", "setting": "HTR8 cells [4]; compared to control, n=3 replicates", "result": "significantly more cells halted at G2"},
      {"measurement": "M30 staining of placenta explants", "setting": "[5]", "result": "more intense M30 staining of placenta explants at a lower doses"},
      {"measurement": "mode of placenta cell death", "setting": "placenta cells", "result": "mainly by apoptosis rather than necrosis"},
      {"measurement": "percentage of dead cells", "setting": "HTR8 cells [6]", "result": "No significant changes"},
      {"measurement": "percentage of live HTR8 cells", "setting": "HTR8 cells [6]", "result": "significantly reduced"},
      {"measurement": "percentage of apoptotic HTR8 cells", "setting": "HTR8 cells [6]; Annexin V expression", "result": "significantly increased"},
      {"measurement": "neutropenia occurrence", "setting": "[7]", "result": 11, "unit": "%"},
      {"measurement": "crown to rump length", "setting": "[8]", "result": "did not alter"},
      {"measurement": "fetal weight", "setting": "[8]", "result": "did not alter"},
      {"measurement": "fetal/placenta ratio", "setting": "[8]", "result": "did not alter"},
      {"measurement": "litter size", "setting": "[8]", "result": "did not alter"},
      {"measurement": "serum human chorionic gonadotropin (hCG) levels", "setting": "placenta cells (JEG3); [9]", "result": "significantly reduced"},
      {"measurement": "tumor volume over time", "setting": "placenta cells (JEG3); [9]", "result": "dose dependently reduced tumor volume over time"},
      {"measurement": "tumor weight", "setting": "placenta cells (JEG3); [9]", "result": "significantly reduced tumor weight"},
      {"measurement": "regressing placenta cells in xenografted SCID mice", "setting": "placenta cells (JEG3); proposed, compared to methotrexate±gefitinib", "result": "more effective than methotrexate±gefitinib"},
      {"measurement": "markers of apoptosis in human Fallopian tubes", "setting": "human Fallopian tubes; preliminary data", "result": "does not upregulate markers of apoptosis"},
      {"measurement": "BAX protein expression", "setting": "human Fallopian tubes; [10]", "result": "no effect"},
      {"measurement": "BCL 2 protein expression", "setting": "human Fallopian tubes; [10]", "result": "no effect"}
    ]}
  ]
}
